Test results from PMC5626944 (Frontiers in Pharmacology, 2017).
Where two headings read alike, the source gives them in different places.

Columns and labels:
[1] = test system: Glutamate, NMDA Agonist Site (Ionotropic); test: NovaScreen competition binding; settings: 1 µM
Neurokinin, NK1 = test: NovaScreen competition binding; settings: 1 µM
[2] = Pharmacokinetics in mice, plasma and brain by LC-MS/MS; assay type: in vivo, mouse; settings: for half-life / Tmax: both sexes, mouse, plasma; for Tmax: read-out: Time of maximum plasma concentration
Method: Pharmacokinetic experiments with TC299423 were performed by Absorption Systems LP (Exton, PA, United States). […] Blood samples were taken and the brains were harvested 5 min, 15 min, 30 min, 1 h, 3 h, and 6 h after drug administration. […] Blood and brain samples were obtained at the same time points as above. Untreated plasma and blood samples were collected from three mice in the same cohort as the study animals for pre-dose (time 0) samples. Blood samples were collected by cardiac puncture and stored in tubes containing sodium heparin before being processed. Plasma was prepared and frozen for analysis. Brains were harvested, rinsed, patted dry, weighed, and frozen.
Matched matrix was used for preparation of calibration standards. Dosing solutions were normalized in matched matrix and analyzed in triplicate in the same analytical batch as the incurred samples.

Serotonin, 5HT6 (h) = test: NovaScreen competition binding; design: species or system human; settings: 1 µM
Muscarinic, M5 (h) = test: NovaScreen competition binding; design: species or system human; settings: 1 µM
Serotonin, 5HT2A = test: NovaScreen competition binding; settings: 1 µM
Opioid, Delta 2 (h) = test: NovaScreen competition binding; design: species or system human; settings: 1 µM
Human FMO3 = test: Turnover by human flavin-containing monooxygenase 3; assay type: in vitro ADME; settings: 100 pmol/mL enzyme, 37 °C
Method: S2 Table. In vitro metabolism of TC299423, compared w ith varenicline.
Human Rat microsomes Turnover by human cytochrome P450 isoforms […]
The assay mixtures (final incubation volume of 125 μL) in 0.255 M phosphate buffer with 0.575% (w/v) KCl (pH 7.4) contained PiB (1.0 μM), […] a recombinantly expressed cytochrome P450 enzyme preparation (1A2, 2C9, 2C19, 2D6, 3A4, and FMO3) at 100 pmol/mL. After a 10 min preincubation at 37 °C, the reaction was initiated by addition of 2.0 mM NADPH and incubated for 60 min. The reactions were terminated by the addition of two volumes of DMSO. Samples were subsequently centrifuged at 4,000 rpm for 10 min. From the resulting supernatant, 10 μ L was analyzed by liquid chromatography/tandem mass spectrometry (LC-MS/MS). Control experiments were performed by substituting the active enzyme preparation by cell preparations containing no recombinant human CYP. a, Data for clearance are given as μL /min/mg protein. […]
c, Data for cytochrome P450 turnover and for human flavin- containing monooxygenase 3 (FMO3) are given as percent decline over 60 min.

α3β4* nAChRs = target: T1, α3β4* nAChRs (Mus musculus, UniProt Q8R493+Q8R4G9); test: [3H]ACh release from interpeduncular nucleus synaptosomes; assay type: biochemical; settings: IPN synaptosomes
T1 construct: from tissue
T1 sequence (Q8R4G9 26-499): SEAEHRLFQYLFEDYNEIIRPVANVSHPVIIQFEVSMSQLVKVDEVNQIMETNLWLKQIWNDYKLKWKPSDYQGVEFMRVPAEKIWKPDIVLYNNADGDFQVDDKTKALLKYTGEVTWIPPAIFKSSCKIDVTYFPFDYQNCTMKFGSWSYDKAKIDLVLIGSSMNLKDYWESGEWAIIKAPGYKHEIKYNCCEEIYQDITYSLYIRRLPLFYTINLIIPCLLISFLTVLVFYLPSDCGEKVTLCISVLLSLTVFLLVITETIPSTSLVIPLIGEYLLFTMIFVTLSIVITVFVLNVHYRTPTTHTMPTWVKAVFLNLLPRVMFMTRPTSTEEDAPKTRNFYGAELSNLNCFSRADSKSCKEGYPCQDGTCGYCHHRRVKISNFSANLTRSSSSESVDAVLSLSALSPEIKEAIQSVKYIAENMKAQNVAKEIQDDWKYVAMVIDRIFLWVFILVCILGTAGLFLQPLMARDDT
T1 sequence (Q8R493 21-495): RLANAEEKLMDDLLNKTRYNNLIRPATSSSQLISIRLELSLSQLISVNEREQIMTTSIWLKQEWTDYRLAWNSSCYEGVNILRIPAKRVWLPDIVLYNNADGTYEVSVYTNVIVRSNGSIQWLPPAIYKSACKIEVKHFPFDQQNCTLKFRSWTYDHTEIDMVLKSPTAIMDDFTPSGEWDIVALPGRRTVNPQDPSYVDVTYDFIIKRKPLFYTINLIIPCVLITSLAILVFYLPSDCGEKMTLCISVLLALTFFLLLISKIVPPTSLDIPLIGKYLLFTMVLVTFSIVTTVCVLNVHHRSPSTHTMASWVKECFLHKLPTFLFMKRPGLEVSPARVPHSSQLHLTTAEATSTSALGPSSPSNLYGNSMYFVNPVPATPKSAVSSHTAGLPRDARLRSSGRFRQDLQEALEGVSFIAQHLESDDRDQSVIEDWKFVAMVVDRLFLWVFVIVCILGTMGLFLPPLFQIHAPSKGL
Method: Regions of interest were dissected from fresh mouse brains and homogenized in ice-cold isotonic sucrose (0.32 M), buffered with HEPES (5 mM, pH 7.5). The suspension was centrifuged at 12,000 × g for 20 min. The pellet was re-suspended in the appropriate uptake buffer ([Grady et al., 2001]; [Salminen et al., 2004]; [Marks et al., 2006]) and used immediately.
Previously published methods for [^3H]ACh release from crude IPN synaptosomes were followed ([Grady et al., 2001]). Agonist-stimulated ^86Rb^+ efflux from synaptosomes was measured using previously described methods ([Marks et al., 1999], [2007]).

GABA-B = test system: T2, GABA-B; test: NovaScreen competition binding; settings: 1 µM
T2 construct: PerkinElmer – Caliper Life Sciences (NovaScreen)

α4β2* nAChRs = α4β2* nAChRs (Mus musculus, UniProt O70174+Q9ERK7); test: biochemical; assay type: biochemical; settings: for Emax: relative to nicotine; for EC50: read-out: Neurotransmitter release EC50
Sequence of α4β2* nAChRs (O70174 31-629): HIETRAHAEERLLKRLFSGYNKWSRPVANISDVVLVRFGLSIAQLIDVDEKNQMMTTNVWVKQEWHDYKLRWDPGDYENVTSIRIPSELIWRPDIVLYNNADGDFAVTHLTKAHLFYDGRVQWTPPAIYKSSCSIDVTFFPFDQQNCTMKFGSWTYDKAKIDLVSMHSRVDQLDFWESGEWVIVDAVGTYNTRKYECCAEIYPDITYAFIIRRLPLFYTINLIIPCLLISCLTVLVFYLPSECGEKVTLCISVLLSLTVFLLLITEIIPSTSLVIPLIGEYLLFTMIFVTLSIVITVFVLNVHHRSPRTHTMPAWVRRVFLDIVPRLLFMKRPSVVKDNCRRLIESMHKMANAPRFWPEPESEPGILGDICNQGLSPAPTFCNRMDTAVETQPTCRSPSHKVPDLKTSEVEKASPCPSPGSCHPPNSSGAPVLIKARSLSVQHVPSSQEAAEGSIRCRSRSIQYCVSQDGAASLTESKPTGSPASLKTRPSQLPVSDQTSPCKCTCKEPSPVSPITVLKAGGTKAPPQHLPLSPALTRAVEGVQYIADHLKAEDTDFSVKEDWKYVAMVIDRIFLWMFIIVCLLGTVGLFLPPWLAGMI
Sequence of α4β2* nAChRs (Q9ERK7 26-501): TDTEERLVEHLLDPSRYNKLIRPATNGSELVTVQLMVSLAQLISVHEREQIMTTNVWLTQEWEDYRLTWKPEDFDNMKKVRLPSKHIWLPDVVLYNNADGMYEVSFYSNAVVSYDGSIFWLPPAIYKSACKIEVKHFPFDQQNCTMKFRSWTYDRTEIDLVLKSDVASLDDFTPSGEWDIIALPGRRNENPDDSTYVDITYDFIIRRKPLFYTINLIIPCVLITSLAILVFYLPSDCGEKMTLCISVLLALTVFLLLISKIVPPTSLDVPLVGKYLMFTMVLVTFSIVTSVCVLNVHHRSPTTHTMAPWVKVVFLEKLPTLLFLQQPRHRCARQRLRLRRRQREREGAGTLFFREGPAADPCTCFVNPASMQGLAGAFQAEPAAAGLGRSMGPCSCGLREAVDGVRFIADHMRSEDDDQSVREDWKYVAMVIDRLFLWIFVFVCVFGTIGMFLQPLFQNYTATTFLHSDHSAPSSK
Method: Regions of interest were dissected from fresh mouse brains and homogenized in ice-cold isotonic sucrose (0.32 M), buffered with HEPES (5 mM, pH 7.5). The suspension was centrifuged at 12,000 × g for 20 min.
Superfusion proceeded at 0.7 mL/min for 10 min before stimulation with agonist for 20 s. Selected aliquots were perfused with α-CtxMII (50 nM) for 3 min immediately before stimulation. […] Fractions (∼0.1 mL) were collected into 96-well plates at 10 s intervals for 4 min (starting ∼1 min before stimulation).

Adrenergic, Alpha 1A = test system: T3, Adrenergic, Alpha 1A; test: NovaScreen competition binding; settings: 1 µM
T3 construct: PerkinElmer – Caliper Life Sciences (NovaScreen service)

[3] = test system: Glutamate, MK-801 Site (Ionotropic); test: NovaScreen competition binding; settings: 1 µM
[4] = In vitro metabolism in microsomes; assay type: in vitro ADME; settings: rat microsomes
Angiotensin II, AT1 (h) = test system: T4, Angiotensin II, AT1 (h); test: NovaScreen competition binding; design: species or system human; settings: 1 µM
T4 construct: PerkinElmer – Caliper Life Sciences (NovaScreen service)

[5] = test system: Calcium Channel, Type L (Dihydropyridine Site); test: NovaScreen competition binding; settings: 1 µM

SMILES: C1=C(/c2cncnc2)CCCNCC/1 [TC299423, (E)-5-(pyrimidin-5-yl)-1,2,3,4,7,8-hexahydroazocine]
- Hit [1]: FALSE
- Inhibition ([1]; [3H]CGP 39653): 5.51%
- Hit (Neurokinin, NK1): FALSE
- Inhibition (Neurokinin, NK1; [3H]Substance P): 2.10%
- Maximum brain-tissue concentration ([2]; 0.3 mg/kg ip): 22 ± 0.43 ng/g
- Maximum plasma concentration ([2]; 0.3 mg/kg ip): 49 ± 18 ng/mL
- Time of maximum brain-tissue concentration ([2]; 0.3 mg/kg ip): 0.5 h
- Maximum brain-tissue concentration ([2]; 0.3 mg/kg ip, converted): 0.12 µM
- Maximum plasma concentration ([2]; 0.3 mg/kg ip, converted): 0.26 µM
- Maximum brain-tissue concentration ([2]; 1 mg/kg oral): 42 ± 17 ng/g
- Maximum plasma concentration ([2]; 1 mg/kg oral): 38 ± 10 ng/mL
- Time of maximum brain-tissue concentration ([2]; 1 mg/kg oral): 0.25 h
- Maximum brain-tissue concentration ([2]; 1 mg/kg oral, converted): 0.22 µM
- Maximum plasma concentration ([2]; 1 mg/kg oral, converted): 0.20 µM
- half-life ([2]; 0.3 mg/kg ip): 10.2 min
- Tmax ([2]; 0.3 mg/kg ip): 4.8 min
- half-life ([2]; 1 mg/kg oral): 67.2 min
- Tmax ([2]; 1 mg/kg oral): 15 min
- Time remaining in the brain ([2]; following ip injection or oral administration): at least 60 min
- Hit (Serotonin, 5HT6 (h)): FALSE
- Inhibition (Serotonin, 5HT6 (h); [3H]-LSD): 8.87%
- Hit (Muscarinic, M5 (h)): FALSE
- Inhibition (Muscarinic, M5 (h); [3H]Scopolamine, N-Methyl): 2.24%
- Hit (Serotonin, 5HT2A): FALSE
- Inhibition (Serotonin, 5HT2A; [3H]Ketanserin): 12.43%
- Hit (Opioid, Delta 2 (h)): FALSE
- Inhibition (Opioid, Delta 2 (h); [3H]-Naltrindole): -2.12%
- Turnover by Human FMO3 (Human FMO3): 17 percent decline over 60 min
- EC50 (α3β4* nAChRs; read-out: Neurotransmitter release EC50 (converted)): 8000 nM
- Emax (α3β4* nAChRs; relative to nicotine, read-out: Neurotransmitter release % Efficacy): 100 ± 16%
- Hit (GABA-B): FALSE
- Inhibition (GABA-B; [3H]CGP 54626A): -2.43%
- Emax (α4β2* nAChRs; read-out: Neurotransmitter release % Efficacy, WT striatal synaptosomes, single component): 76 ± 5%
- Emax (α4β2* nAChRs; read-out: Neurotransmitter release % Efficacy, α5KO striatal synaptosomes): 112 ± 9%
- EC50 (α4β2* nAChRs; WT striatal synaptosomes, single component): 130 nM
- EC50 (α4β2* nAChRs; α5KO striatal synaptosomes): 600 nM
- Hit (Adrenergic, Alpha 1A): FALSE
- Inhibition (Adrenergic, Alpha 1A; [3H]-7-MeOxy-Prazosin): -0.05%
- Hit [3]: FALSE
- Inhibition ([3]; [3H]MK-801): 5.46%
- Half-life compared to varenicline [4]: ~7 fold
- half-life [4]: 79 min
- microsomal CLint ([4]; read-out: Clearance): 18 µL/min/mg
- Hit (Angiotensin II, AT1 (h)): FALSE
- Inhibition (Angiotensin II, AT1 (h); [125I]-(Sar1-Ile8) Angiotensin): 24.85%
- Hit [5]: FALSE
- Inhibition ([5]; [3H]Nitrendipine): -3.91%
